US20250177324A1, “A[…], AND PREPARATION METHOD THEREFOR AND USE THEREOF” (SHANGHAI ZHIGEN PHARMACEUTICAL & TECHNOLOGY CO. LTD., priority 2022, published 2025)
Where two headings read alike, the source gives them in different places.

Experiments:
C57 mice [1] = test: Forced swim test of oral administration in mice (antidepressant activity); type: in vivo; settings: reduction of immobility time vs blank group, single gavage 20 mg/kg; for inhibition in vivo at 20 mg/kg: Mus musculus, po
Procedure: To investigate the effects of different compounds on depression-like behavior in C57 mice by single oral administration of 20 mg/kg for 1 h and 24 h followed by forced swimming experiment, respectively.
The experimental animals were 6-week-old C57 mice, male, C57 breed mice purchased from Shanghai Slaughter Laboratory Animal Co. Ltd, weighing 20.45±0.19 g. The animals arrived at the Animal Breeding Center of the Shanghai Institute of Pharmaceutical Sciences, Chinese Academy of Sciences (Animal Production License: SCXK9[Shanghai]2004-0002, Use License: SYXK [Shanghai]2003-0029) before the experiments and were acclimated to the animal facilities for more than 3 days, 6 animals/cage were feed. The feeding environment was room temperature 23±0.2° C. and 12/12 h day/night alternating light and dark. Prior to behavioral testing, animals were moved to the behavioral testing room 2 hours in advance to acclimatize them to the environment and reduce their nervousness.
Preparation of the test material: the test compounds were weighed and dissolved in 0.9% NaCl solution, mixed well, and prepared into 1 mg/ml and 2 mg/ml solution for use, respectively.
24 h prior to drug administration, mice were placed in a cylindrical tank to acclimatize to the water environment for 10 min. On the day of the behavioral test, the animals were administered the drug once, by gavage/intraperitoneal injection at 1 h and 24 h prior to the behavioral test, respectively (as shown in Table 1).
The antidepressant effect of the compounds was evaluated by their ability to cause a reduction in the immobility time of the animals in the forced swim test compared to the blank group.

[2] = Solid-state chemical stability under different storage conditions (liquid chromatography); type: physicochemical; settings: for Stability of solid state compound, 0 Days (%): liquid chromatography
Procedure: The HPLC conditions were as follows:
Configuration of test solution: appropriate amount of sample was dissolved and diluted with a diluent (0.03 mol/L phosphate buffer-acetonitrile (80:20)) to make 1 mg/mL solution.
Chromatographic conditions: according to the high performance liquid chromatography (Chinese Pharmacopoeia 2020 version of the four general 0512) test, using octadecyl-bonded silica gel (Agilent Eclipse Plus C18, 4.6 mm*250 mm, 5.0 μm, P/N for 959990-902 or a chromatographic column with equivalent performance) as a filler; 0.03 mol/L phosphate buffer (4.08 g of potassium dihydrogen phosphate was dissolved in 1000 ml of water and shaken well) was used as mobile phase A and acetonitrile as mobile phase B at a flow rate of 1 ml/min, the column temperature was 30° C., the detection wavelength was 220 nm, the injection volume was 10 ul, and the sample plate was controlled to 8° C. and running for 65 min. Gradient elution was performed according to the following table: […]
Configuration of test solution: appropriate amount of the product was dissolved and diluted with a diluent (0.1% phosphoric acid-acetonitrile (80:20)) to make 1 mg/mL solution.
Chromatographic conditions: according to the high performance liquid chromatography (Chinese Pharmacopoeia 2020 version of the four general 0512) test, using octadecyl bonded silica gel (Agilent Eclipse Plus C18, 4.6 mm*250 mm, 5.0 μm, P/N 959990-902 or a chromatographic column with equivalent performance) as a filler; 0.1% phosphate buffer (1 ml of phosphoric acid in 1000 ml of water and shake well) as mobile phase A, acetonitrile as mobile phase B, flow rate of 1 ml/min, column temperature of 30° C., detection wavelength of 220 nm, injection volume of 10 ul, running for 48 minutes. Gradient elution was performed according to the following table: […]

[3] = Brain tissue distribution study in rats; type: in vivo; settings: SD rats, 10 mg/kg gavage
Procedure: Healthy male SD rats, randomly grouped with 3 rats in each group, were given the test compounds by gavage.
(§1) Each test compound was dissolved in saline to form a certain concentration solution for administration.
Fasting but not abstaining from water for 12-14 hours on the day before administration, and food was given 4 h after administration.
Brain tissues were collected after the animals were bled, cleaned, and homogenized with 50% ice methanol 1:4 (m/v). The collection time points were 5 min, 10 min, 30 min, and 2 h after the administration of subjects; 30.0 μL of tissue samples were taken (the samples were taken from the refrigerator at −80° C. and vortexed for 30 s after natural dissolution at room temperature) into 1.5 mL centrifugal tubes, and 300.0 μL of the internal standard solution (30 ng/mL buspirone in acetonitrile) was added; the samples were vortexed for 60 s, and centrifuged for 3 min (the centrifugal force was 12,000 rpm). 75 μL of the supernatant was transferred to a 96-well plate containing an equal volume of water, shaken to mix well and then sampled for LC-MS/MS analysis, the sample volume is 10 μL.

[4] = In vivo pharmacokinetic experiments in beagle dogs; settings: beagle dog
Procedure: Healthy male beagle dogs, randomly grouped with 3 dogs in each group, were given the test compound by gavage or intravenous injection.
as §1
Fasting but not abstaining from water for 12-14 hours on the day before administration, and food was given 4 h after administration; no fasting was done for the intravenous experiments.
Each animal was sampled with 0.6 mL of blood each time through the jugular vein and anticoagulated with EDTAK2. The collection time points were 5 min, 10 min, 15 min, 30 min, 1 h, 2 h, 4 h, 6 h, 8 h, and 24 h after administration of the subject in group PO; group IV: 2 min, 5 min, 15 min, 30 min, 1 h, 2 h, 4 h, 6 h, 24 h after administration of the subject. Blood samples were placed on ice after collection and centrifuged to separate plasma within 30 min (centrifugation conditions: 5000 rpm, 10 min, 4° C.). The samples were stored at −80° C. before analysis.

C57 mice [5] = test: Forced swim test of oral administration in mice (antidepressant activity); type: in vivo; settings: Mus musculus, reduction of immobility time vs blank group, abdominal injection 10 mg/kg
[6] = test 1 h after dosing, read-out: 1 h inhibition (%)
[7] = test 24 h after dosing, read-out: 24 h inhibition (%)

Structure (SMILES): N[C@@]1(c2ccccc2Cl)CCC[C@@H](O)C1=O [(2R,6R)-HNK, reference compound]
- 1 h inhibition (%) (C57 mice [1]; test 1 h after dosing): 21.1 ± 1.4%
- 24 h inhibition (%) (C57 mice [1]; test 24 h after dosing): 24.8 ± 6.9%
- Stability of solid state compound, 0 Days (%) ([2]; 40° C., 75% RH): 99.18%
- Stability of solid state compound, 5 Days (%) ([2]; 40° C., 75% RH): 98.54%
- Stability of solid state compound, 10 Days (%) ([2]; 40° C., 75% RH): 97.85%
- brain/plasma ratio [3]: 0.95
- AUC0-t brain [3]: 2480 ng·h/g
- Cmax brain [3]: 1495 ng/g
- AUC0-t plasma ([3]; plasma): 2610 ng·h/mL
- Cmax plasma ([3]; plasma): 1480 ng/mL

Structure (SMILES): CN[C@@]1(c2ccc(C(F)(F)F)cc2)CCC[C@](C)(O)C1=O.Cl [Compound 73, (2S,6R)-2-hydroxy-2-methyl-6-methylamino-6-(4-(trifluoromethyl)phenyl)cyclohexan-1-one hydrochloride]
- inhibition in vivo at 20 mg/kg (C57 mice [1]; [6]): 68.7 ± 0.6%
- inhibition in vivo at 20 mg/kg (C57 mice [1]; [7]): 39.4 ± 4.4%
- Stability of solid state compound, 0 Days (%) ([2]; 40° C., 75% RH): 99.94%
- Stability of solid state compound, 5 Days (%) ([2]; 40° C., 75% RH): 99.90%
- Stability of solid state compound, 10 Days (%) ([2]; 40° C., 75% RH): 99.88%
- Stability of solid state compound, 30 Days (%) ([2]; 40° C., 75% RH): 99.89%
- AUC0-t ([4]; 1 mg/kg i.v.): 941 ngh/mL
- AUC0-∞ ([4]; 1 mg/kg i.v.): 970 ngh/mL
- AUC0-t ([4]; 5 mg/kg P.O.): 2179 ngh/mL
- AUC0-∞ ([4]; 5 mg/kg P.O.): 2224 ngh/mL
- F ([4]; 5 mg/kg P.O.): 46.3%
- MRT ([4]; male, plasma, iv, 1 mg/kg i.v.): 1.84 h
- clearance ([4]; male, plasma, iv, 1 mg/kg i.v.): 17.7 mL/min/kg
- half-life ([4]; male, plasma, iv, 1 mg/kg i.v.): 1.61 h
- Vd ([4]; male, plasma, iv, 1 mg/kg i.v., read-out: Vss): 1.93 L/kg
- Cmax ([4]; male, plasma, po, 5 mg/kg P.O.): 1020 ng/mL
- MRT ([4]; male, plasma, po, 5 mg/kg P.O.): 2.57 h
- Tmax ([4]; male, plasma, po, 5 mg/kg P.O.): 0.42 h
- half-life ([4]; male, plasma, po, 5 mg/kg P.O.): 2.33 h
- AUC0-t brain [3]: 6172 ng·h/g
- Cmax brain [3]: 5567 ng/g
- Kp ([3]; male, rat, brain and plasma, po, read-out: brain/plasma ratio): 3.4
- AUC0-t ([3]; male, rat, po, plasma): 1820 ng·h/mL
- Cmax ([3]; male, rat, po, plasma): 1600 ng/mL

Structure (SMILES): Cl.[2H]C([2H])([2H])N[C@@]1(c2ccc(C(F)(F)F)cc2)CCC[C@](C)(O)C1=O [Compound 76, (2S,6R)-2-hydroxy-2-methyl-6-trideutero-methylamino-6-(4-(trifluoromethyl)phenyl)cyclohexan-1-one hydrochloride]
- inhibition in vivo at 20 mg/kg (C57 mice [1]; [6]): 65.2 ± 0.8%
- inhibition in vivo at 20 mg/kg (C57 mice [1]; [7]): 47.1 ± 3.2%
- Stability of solid state compound, 0 Days (%) ([2]; 40° C., 75% RH): 99.88%
- Stability of solid state compound, 10 Days (%) ([2]; 40° C., 75% RH): 99.65%
- Stability of solid state compound, 30 Days (%) ([2]; 40° C., 75% RH): 99.84%

Structure (SMILES): CCN[C@@]1(c2ccc(C(F)(F)F)cc2)CCC[C@](C)(O)C1=O.Cl [Compound 77, (2R,6S)-2-ethylamino-6-hydroxy-6-methyl-2-(4-(trifluoromethyl)phenyl)cyclohexan-1-one hydrochloride]
- inhibition in vivo at 20 mg/kg (C57 mice [1]; [6]): 69.8 ± 1.6%
- inhibition in vivo at 20 mg/kg (C57 mice [1]; [7]): 44.3 ± 3.5%
- Stability of solid state compound, 0 Days (%) ([2]; 25° C., 60% RH): 99.70%
- Stability of solid state compound, 10 Days (%) ([2]; 25° C., 60% RH): 99.69%
- Stability of solid state compound, 30 Days (%) ([2]; 25° C., 60% RH): 99.70%

Structure (SMILES): CN[C@]1(c2ccccc2Cl)CCCCC1=O [S-ketamine]
- inhibition in vivo at 10 mg/kg (C57 mice [5]; [6]): 20.7 ± 3.7%
- inhibition in vivo at 10 mg/kg (C57 mice [5]; [7]): 23.6 ± 1%
